Like-named read-outs stand apart in the source and are kept apart here.
Assays:
Format in all cases: physicochemical
[1] = Determination of moisture contents with KF moisture meter at different time points (hygroscopicity); conditions: for moisture content (%): temperature 23° C., humidity 92.5%; for moisture content of the complex compared with the acid, the sodium salt and their mixture: summary of Tables 2A-2C; for hygroscopicity of the solid acid: easy to deliquesce
Excerpt: For R-3-hydroxybutyric acid, sodium R-3-hydroxybutyrate, Mixture of R-3-hydroxybutyric acid and sodium R-3-hydroxybutyrate, as well as R-3-hydroxybutyric acid·sodium R-3-hydroxybutyrate complex of Examples 1-6, under a certain condition, KF moisture meter was used to determine the moisture contents at different time points.
(§1) For 3-hydroxybutyric acid, sodium 3-hydroxybutyrate, mixture of 3-hydroxybutyric acid and sodium 3-hydroxybutyrate, as well as 3-hydroxybutyric acid·sodium 3-hydroxybutyrate complex of Examples 7-9, under a certain condition, KF moisture meter was used to determine the moisture contents at different time points.
as §1, with “S-3-hydroxybutyric” for “3-hydroxybutyric”, “S-3-hydroxybutyrate,” for “3-hydroxybutyrate,”, “S-3-hydroxybutyrate” for “3-hydroxybutyrate”, “10-12,” for “7-9,”

[2] = Stability of the solids at different temperatures
Procedure: For R-3-hydroxybutyric acid, sodium R-3-hydroxybutyrate, mixture of R-3-hydroxybutyric acid and sodium R-3-hydroxybutyrate, as well as R-3-hydroxybutyric acid·sodium R-3-hydroxybutyrate complex of Examples 1-6, the stability was measured at 60° C., 70° C. and 80° C., and the experimental results are shown in Table 3A.
For 3-hydroxybutyric acid, sodium 3-hydroxybutyrate, mixture of 3-hydroxybutyric acid and sodium 3-hydroxybutyrate, as well as 3-hydroxybutyric acid·sodium 3-hydroxybutyrate complex of Examples 7-9, the stability was measured at 60° C., 70° C. and 80° C., and the experimental results are shown in Table 3B.
For S-3-hydroxybutyric acid, sodium S-3-hydroxybutyrate, mixture of S-3-hydroxybutyric acid and sodium S-3-hydroxybutyrate, as well as S-3-hydroxybutyric acid·sodium S-3-hydroxybutyrate complex of Examples 10-12, the stability was measured at 60° C., 70° C. and 80° C., and the experimental results are shown in Table 3C.

[3] = Stability of the solids at different temperatures; remark: listed apart in the source

Row | SMILES | moisture content (%) ([1]; 30 min) | moisture content (%) ([1]; 1 h) | moisture content (%) ([1]; 2 h) | moisture content (%) ([1]; 4 h) | moisture content (%) ([1]; 6 h) | moisture content (%) ([1]; 7 h) | moisture content (%) ([1]; 11 h) | moisture content (%) ([1]; 22 h) | Stability [2] | hygroscopicity of the complex compared with the acid, the sodium salt and their mixture [1] | moisture content of the complex compared with the acid, the sodium salt and their mixture [1] | stability of the complex [2] | hygroscopicity of the solid acid [1] | Stability ([2]; 60° C.) | Stability ([2]; 70° C.) | Stability ([2]; 80° C.) | Stability ([3]; 30° C.) | Stability ([3]; 40° C.) | Stability ([3]; 50° C.)
1 | C[C@@H](O)CC(=O)[O-].[Na+] [Sodium R-3-hydroxybutyrate, sodium R-3-hydroxybutyrate] | 1.04 | 2.01 | 3.39 | 5.23 | 7.35 | 8.04 | 12.68 | 24.68 | unchanged |  |  |  |  |  |  |  |  |  | 
2 | CC(O)CC(=O)O (stereo not shown) [3-hydroxybutyric acid • sodium 3-hydroxybutyrate complex] [3-hydroxybutyric acid·sodium 3-hydroxybutyrate] | 0.61 | 1.18 | 2.05 | 3.38 | 4.99 | 5.52 | 8.73 | 17.63 | unchanged | obviously superior | significantly lower | very high |  |  |  |  |  |  | 
3 | CC(O)CC(=O)O (stereo not shown) [3-hydroxybutyric acid] | 1.32 | 2.37 | 4.15 | 6.59 | 9.68 | 10.71 | 17.33 | 33.51 |  |  |  |  | strong hygroscopicity |  |  |  |  |  | 
4 | C[C@@H](O)CC(=O)O [R-3-hydroxybutyric acid • sodium R-3-hydroxybutyrate complex] [R-3-hydroxybutyric acid·sodium R-3-hydroxybutyrate] | 0.54 | 1.02 | 1.96 | 3.26 | 4.89 | 5.39 | 8.65 | 17.45 | unchanged | obviously superior | significantly lower | very high |  |  |  |  |  |  | 
5 | C[C@H](O)CC(=O)[O-].[Na+] [Sodium S-3-hydroxybutyrate, sodium S-3-hydroxybutyrate] | 1.09 | 2.07 | 3.49 | 5.32 | 7.46 | 8.15 | 12.73 | 24.53 |  |  |  |  |  | unchanged | unchanged | unchanged | unchanged | unchanged | unchanged
6 | CC(O)CC(=O)[O-].[Na+] (stereo not shown) [Sodium 3-hydroxybutyrate, sodium 3-hydroxybutyrate] | 1.15 | 2.19 | 3.62 | 5.35 | 7.54 | 8.35 | 12.86 | 24.95 | unchanged |  |  |  |  |  |  |  |  |  | 
7 | C[C@@H](O)CC(=O)O [R-3-hydroxybutyric acid] | 1.13 | 2.25 | 3.96 | 6.46 | 9.52 | 10.56 | 17.22 | 33.34 |  |  |  |  | strong hygroscopicity |  |  |  |  |  | 
8 | C[C@H](O)CC(=O)O [S-3-hydroxybutyric acid·sodium S-3-hydroxybutyrate] | 0.71 | 1.38 | 1.85 | 3.28 | 4.79 | 5.32 | 8.43 | 16.93 | unchanged | obviously superior | significantly lower | very high |  |  |  |  |  |  | 
9 | C[C@H](O)CC(=O)O [S-3-hydroxybutyric acid] | 1.23 | 2.28 | 4.05 | 6.32 | 9.53 | 10.62 | 17.08 | 32.95 |  |  |  |  | strong hygroscopicity | melted | melted | melted | unchanged |  | melted

— patent US20250221948A1, “Complex of 3-hydroxybutyric acid and sodium 3-hydroxybutyrate and preparation method thereof” (priority 2022, published 2025)
